From patent publication US6331565A, “Dicaffeoylquinic acid for treating hepatitis B and the diseases associated with retrovirus, and the new caffeoylquinic acid derivatives” (Institute of Radiation Medicine Academy of Military Medical …, priority 1996, dated 2001)
≈ marks a conversion by molar mass, not a printed value. Read-outs that look alike come from different tables or passages of the source.

Experiments:
HBeAg = assay: microbe, parasite or virus in culture; type: cell-based, HBV; conditions: Hepatitis B virus; for inhibition at 7.81 µg/mL / inhibition at 15.63 µg/mL / inhibition at 31.25 µg/mL / inhibition at 62.5 µg/mL / inhibition at 125 µg/mL / inhibition at 250 µg/mL: read-out: HBeAg Inhibit rate (%)
Protocol: (§1) The cultures were passenged by trypsinization every 4 days.
(§2) HBsAg and HBeAg in the culture medium were determined according to the protocol respectively. The culture medium (200 μl) was absorbed on beads containing antibody to HBsAg/HBeAg in the presence of the conjugate. After overnight incubation, the beads were washed 6 times with […] PBS containing 0.05% Tween-80 and incubated with 200 μl of [^125 I] anti-HBs(Hbe) overnight. The beads were washed 6 times as above. The amounts HBsAg/HBeAg as measure of cpm of [^125 I] labeled immunocomplex was counted on γ-counter.

HBsAg = assay: microbe, parasite or virus in culture; type: cell-based, HBV; conditions: Hepatitis B virus; for inhibition at 7.81 µg/mL / inhibition at 15.63 µg/mL / inhibition at 31.25 µg/mL / inhibition at 62.5 µg/mL / inhibition at 125 µg/mL / inhibition at 250 µg/mL: read-out: HBsAg Inhibit rate (%)
Protocol: as §1, §2

DHBV = assay: anti-DHBV test in ducks (serum DHBV DNA dot blot); type: in vivo, DHBV in Peking (Beijing) ducks
Protocol: One-day-old ducklings were infected with a 200 μl intravenous injection of DHBV-positive serum containing 10^11 viral genome equivalents per milliliter. Treatment began when ducklings were 7 days old. A total 89 seven-day-old viraemic ducks were distributed at random into five groups. […] Post-treatment follow-up was carried over a period of 5 days. Blood samples were obtained repectively from the leg vein of all ducks and stored at -70° C. after serum separation, prior to treatment, weekly during the treatment, and for 5 days after cessation of treatment. They were screened for presence of DHBV DNA by dot blot hybridization.
DHBV DNA in serum was analyzed by molecular hybridization using full length DHBV DNA clones in PB325. The DHBV DNA insert was purified by agarose gel electrophoresis after digestion with EcoRI. The DHBV DNA was radiolabeled with α^32 P-dCTP random oligopriming with Klenow fragment. Dot blot hybridization was carried out by the method of Scotto et al. Briefly, an aliquot (200 μl) serum was spotted onto a nylon membrane (Hybond-N, Amersham International, England) in dot blot manifold and denatured with 0.5 M NaOH--NaCl at room temperature for 30 min. Each spotted sample was neutralized in 1M Tris.HCl-1.5M NaCl (pH8.0). The DNA on the membrane was fixed by heating at 80° C. for 2 h, and prehybridization at 37° C. overnight in 50% formamide, 5×Denhardt's, 6×SSC,[…], 0.5% SDS and 10 mg/ml of calf thymus DNA. Hybridization was initiated by adding DHBV [^32 P] DNA probes at 10^6 cpm/ml at the same prehybridization conditions overnight. The membrane was washed in 3×SSC-0.1% SDS at room temperature, 42° C. and 65° C. for 10 min respectively. After hybridization the membranes were air-dried and exposed for periods of up to 14 days at -70° C. with Kodak film with an enhancer screen. The amount of viral DNA were assayed by both densitometry and image analysis of autoradiographic membranes.

HIV-1 = assay: microbe, parasite or virus in culture; conditions: Human immunodeficiency virus 1, MT4, in Homo sapiens, 168 h
Protocol: A human T-cell leukemia cell line. MT4 cells, was used in this study. It was maintained in RPMI-1640 medium supplemented with 10% FCS. 100 U/ml of penicillin, and 100 μg/ml of streptomycin at 37° C. in a humidified atmosphere of 5% CO2. Cell cultures were split into fresh medium every 4 days.
HIV-1 virus was propagated in MT4 cells. The cell-free supernatants of HIV-1 infected MT4 cell culture were used as virus stocks and frozen at -80° C. until used. The 50% tissue culture infected dose (TCID50) of the cell-free virus stock was determined by end-point titration with MT4 cells in 96-well microdilution plates.
After 4 h, 100 μl of solvent (10% Triton X-100 and 0.4% HCl isopropanol)was added to cultures to solubilizes formazan. After an overnight incubation, the absorbency of each well was measured using a microplate reader (Bio-Rad, model 450) at 560 nm.
MT4 cells in culture were counted by trypan blue exclusion method. The MT4 cells suspended in a small volume of RPMI-1640 medium without FCS and infected with HIV-1 at 200 TCID50 viruses per 10^6 cells. The mixture of MT4 cells and virus was subsequently incubated at 37° C. in a humidified atmosphere of 5% CO2 for 1 hr to allow virus to adsorbed to cells. Unabsorbed viruses were then removed by washing one with […] of the fresh medium and centrifuged at 1000 rpm for ten minutes. The cells were suspended in the medium and distributed into 12-well microculture plates (10^6 cells/3 ml/well). […] After 4-day incubation at 37° C. in a humidified atmosphere containing 5% CO2 the medium was aspirated and the fresh medium containing the same concentration of drug was added.
After 7-day incubation the viable cells was evaluated by MTT method as described above.

## O=C(/C=C/c1ccc(O)c(O)c1)OC1CC(OC(=O)/C=C/c2ccc(O)c(O)c2)(C(=O)O)CC(O)C1O (stereo not shown) [Compound A, 1,5-di-O-caffeoylquinic acid]
HBeAg; 96 h
  inhibition at 7.81 µg/mL: 8.94 ± 4.29%
  inhibition at 15.63 µg/mL: 19.1 ± 3.89%
  inhibition at 31.25 µg/mL: 34.5 ± 6.66%
  inhibition at 62.5 µg/mL: 41 ± 3.68%
  inhibition at 125 µg/mL: 47.4 ± 1.09%
  inhibition at 250 µg/mL: 64.2 ± 2.03%
HBeAg; 288 h
  inhibition at 7.81 µg/mL: 15.9 ± 2.4%
  inhibition at 15.63 µg/mL: 27.8 ± 2.23%
  inhibition at 31.25 µg/mL: 30.5 ± 3.55%
  inhibition at 62.5 µg/mL: 47.3 ± 0.81%
  inhibition at 125 µg/mL: 54.5 ± 1.01%
  inhibition at 250 µg/mL: 66.5 ± 0.9%
HBeAg; […]
  inhibition at 7.81 µg/mL: 10.4 ± 2.05%
  inhibition at 15.63 µg/mL: 31.7 ± 7.1%
  inhibition at 31.25 µg/mL: 41.8 ± 2.47%
  inhibition at 62.5 µg/mL: 45.2 ± 2.47%
  inhibition at 125 µg/mL: 52.5 ± 1.89%
  inhibition at 250 µg/mL: 64.7 ± 2.28%
HBeAg; read-out: IC50, production of HBeAg
  IC50: 21 to 78 µg/mL (≈ 40.7 to 151 µM)
HBsAg; 96 h
  inhibition at 7.81 µg/mL: 17.2%
  inhibition at 15.63 µg/mL: 26%
  inhibition at 31.25 µg/mL: 37.2 ± 2.86%
  inhibition at 62.5 µg/mL: 47.5 ± 1.17%
  inhibition at 125 µg/mL: 57%
  inhibition at 250 µg/mL: 62.3 ± 2.22%
HBsAg; 288 h
  inhibition at 7.81 µg/mL: 24.2 ± 4.63%
  inhibition at 15.63 µg/mL: 31.4 ± 3.2%
  inhibition at 31.25 µg/mL: 36.1%
  inhibition at 62.5 µg/mL: 50.1 ± 1.28%
  inhibition at 125 µg/mL: 58.3%
  inhibition at 250 µg/mL: 66.6%
HBsAg; […]
  inhibition at 7.81 µg/mL: 18.5%
  inhibition at 15.63 µg/mL: 27.6%
  inhibition at 31.25 µg/mL: 35.8 ± 1.9%
  inhibition at 62.5 µg/mL: 46.7 ± 2.03%
  inhibition at 125 µg/mL: 55 ± 2.08%
  inhibition at 250 µg/mL: 68.8 ± 4.68%
HBsAg; read-out: IC50, production of HBsAg
  IC50: 21 to 165 µg/mL (≈ 40.7 to 319 µM)
HBsAg; read-out: IC50 for inhibition of production of HBsAg
  IC50: 21 to 165 µg/mL (≈ 40.7 to 319 µM)
DHBV; 50 mg.kg of body weight^-1.day^-1
  inhibition of DHBV DNA: strange inhibition of DHBV DNA
DHBV; 50 mg.kg of body weight^-1.day^-1, day 14
  inhibition of viraemia: 87%
HIV-1; read-out: Inhibit rate (%), 1.56 μg/ml, 1000 TCID50 (first column pair), 7 days
  inhibition at 1.56 µg/mL: 7.2%
HIV-1; read-out: Inhibit rate (%), 1.56 μg/ml, 1000 TCID50 (second column pair), 7 days
  inhibition at 1.56 µg/mL: 8.1%
HIV-1; read-out: Inhibit rate (%), 3.12 μg/ml, 1000 TCID50 (first column pair), 7 days
  inhibition at 3.12 µg/mL: 21.1%
HIV-1; read-out: Inhibit rate (%), 3.12 μg/ml, 1000 TCID50 (second column pair), 7 days
  inhibition at 3.12 µg/mL: 19%
HIV-1; read-out: Inhibit rate (%), 6.25 μg/ml, 1000 TCID50 (first column pair), 7 days
  inhibition at 6.25 µg/mL: 40%
HIV-1; read-out: Inhibit rate (%), 6.25 μg/ml, 1000 TCID50 (second column pair), 7 days
  inhibition at 6.25 µg/mL: 44.3%
HIV-1; read-out: Inhibit rate (%), 12.5 μg/ml, 1000 TCID50 (first column pair), 7 days
  inhibition at 12.5 µg/mL: 55%
HIV-1; read-out: Inhibit rate (%), 12.5 μg/ml, 1000 TCID50 (second column pair), 7 days
  inhibition at 12.5 µg/mL: 56.5%
HIV-1; read-out: Inhibit rate (%), 25 μg/ml, 1000 TCID50 (first column pair), 7 days
  inhibition at 25 µg/mL: 69.9%
HIV-1; read-out: Inhibit rate (%), 25 μg/ml, 1000 TCID50 (second column pair), 7 days
  inhibition at 25 µg/mL: 63.7%
HIV-1; read-out: Inhibit rate (%), 50 μg/ml, 1000 TCID50 (first column pair), 7 days
  inhibition at 50 µg/mL: 74.8%
HIV-1; read-out: Inhibit rate (%), 50 μg/ml, 1000 TCID50 (second column pair), 7 days
  inhibition at 50 µg/mL: 60.6%
HIV-1; read-out: Inhibit rate (%), 100 μg/ml, 1000 TCID50 (first column pair), 7 days
  inhibition at 100 µg/mL: 61.5%
HIV-1; read-out: Inhibit rate (%), 100 μg/ml, 1000 TCID50 (second column pair), 7 days
  inhibition at 100 µg/mL: 57.7%
